From ChEMBL document CHEMBL5053552, “Design, Synthesis, and Antiviral activity of 1,2,3,4-Tetrahydropyrimidine derivatives acting as novel entry inhibitors to target at "Phe43 cavity" of HIV-1 gp120” (Bioorg Med Chem, 2021)
Active and inactive are the calls of the source. No cut-off for these calls is given here.

Tests used:
[1] = Cytotoxicity against human SUP-T1 cells assessed as reduction in cell viability measured after 16 hrs by MTT assay; assay type: cell-based
[2] = tested on: Human immunodeficiency virus 1; assay: Antiviral activity against HIV1 931N101 infected in human SupT1 cells assessed as inhibition of viral entry mesaured after 96 hrs by p24- ELISA assay; assay type: functional, organism-based; conditions: Human immunodeficiency virus 1, 931N101, SUP-T1, 96 h
[3] = tested on: Human immunodeficiency virus 1; assay: Antiviral activity against HIV1 931N101 infected in human SupT1 cells assessed as inhibition of viral entry at 2.2 uM mesaured after 96 hrs by p24- ELISA assay relative to control; assay type: functional; conditions: Human immunodeficiency virus 1, 931N101, SUP-T1
SUP-T1 = assay: Inhibition of HIV1 gp120 interaction with CD4 in human SUP-T1 cells expressing CCR5, CXCR4 assessed as decrease in viral entry by fluorescent microscopic assay; assay type: cell-based; conditions: Human immunodeficiency virus 1

SMILES	CC50 at 16 h [1]	IC50 [2]	inhibition at 2.2 µM [3]	inhibition (SUP-T1)
CCOC(=O)C1=C(C)NC(=O)NC1c1ccc(OC)cc1 (configuration not stated)	103 µM	6.2 µM	–	–
CCOC(=O)C1=C(C)NC(=S)NC1c1ccc(Br)cc1 (configuration not stated)	136 µM	4.2 µM	–	–
CCOC(=O)C1=C(C)NC(=S)NC1c1cc(Br)ccc1O (configuration not stated)	83.4 µM	3.7 µM	–	–
CCOC(=O)C1=C(C)NC(=S)NC1c1cccc(Cl)c1 (configuration not stated)	97.6 µM	3.5 µM	–	–
CCOC(=O)C1=C(C)NC(=S)NC1c1ccc(O)c(OC)c1 (configuration not stated)	101 µM	2.2 µM	50%	Active
CCOC(=O)C1=C(C)NC(=O)NC1c1ccc(O)cc1 (configuration not stated)	132 µM	6 µM	–	–
CCOC(=O)C1=C(C)NC(=O)NC1c1cc(Br)ccc1O (configuration not stated)	138 µM	5.3 µM	–	–
CCOC(=O)C1=C(C)NC(=O)NC1c1ccc(O)c(OC)c1 (configuration not stated)	141 µM	8.5 µM	–	Active
CCOC(=O)C1=C(C)NC(=O)NC1c1ccccc1C (configuration not stated)	136 µM	9.5 µM	–	–
CCOC(=O)C1=C(C)NC(=S)NC1c1ccc(O)cc1 (configuration not stated)	88.9 µM	4 µM	–	–
CCOC(=O)C1=C(C)NC(=S)NC1c1ccccc1C (configuration not stated)	124 µM	5.2 µM	–	–
CCOC(=O)C1=C(C)NC(=S)NC1c1ccc(OC)cc1 (configuration not stated)	110 µM	4.5 µM	–	–
